Source: patent publication US20040162263A1, “Pharmaceutical formulations targeting specific regions of the gastrointesinal tract” (priority 2002, published 2004)

Assay: Pharmacokinetics of 9-nitro-camptothecin (9NC) in IVAP beagle dog model
Format: in vivo, beagle dogs
Conditions: for Mean AUC0-inf of 9-AC, Portal Vein AUC / Mean AUC0-inf of 9-AC, Systemic AUC: in ng·h/mL
Experimental: Blood samples were taken systemic and from the portal vein through a sampling/delivery vascular port previously implanted, then plasma was separated by centrifugation and kept frozen at −80° C. until analysis.
The samples were analyzed in a Perkin Elmer liquid chromatography-tandem mass spectrometer system with a PE LC-200 Micro pump, a PE200 Autosampler and a PE Sciex API 365 mass spectrometry unit.
Adult male beagle dogs (between the ages of 1 and 5 years and weighed between 9 and 16 kg) were obtained from Summit Ridge Farms, Susquehanna, Pa. The IVAP dogs were prepared by using a protocol similar to the one used for pentostatin experiments described above.
On the morning of the test, each animal is weighed and placed in the sling. An IV catheter is installed in the brachial vein for systemic blood sampling with a multiuse vacutainer needle adapter. This is flushed with heparinized saline (50 units/ml) to maintain potency between sampling. When necessary, a 20 g or 22 g right-angled Huber infusion set would be placed in the PV port and attached to a three-way stopcock for PV blood sampling.
The preparation of the dose depends on the route of study. In case of IV and PV administration, the drug was dissolved in dimethylacetamide (DMA) at 5 mg/ml and 0.5 ml of the DMA concentrate filtered through a […] filter into 4.5 ml of diluent (51% PEG-400 49% 0.001 M H3PO4) prior to administration to the brachial or portal vein. In the case of all other infusions, as well as oral administration, the drug was dissolved in vegetable oil to a concentration of 1 mg/ml and drawn up into dosing syringes. Animals were dosed IV at 0.1 and 0.2 mg/kg and 0.2 mg/kg for all the other routes of administration tested.
In intravascular studies, the dose is administered via a second catheter and the entire volume is delivered within 45 seconds.
In portal vein studies, the dose is also administered via an additional catheter over a 30 min time period.
In the case of oral dosages, the dose is delivered to the back of the mouth with an appropriate size syringe and is followed with 5 ml of tap water to assist swallowing and clearance of the dose from the mouth. Capsules were administered similarly by placing them at the back of the mouth and giving around 5 ml of water to facilitate swallowing.
For all other tests, the dosage is infused into the appropriate intestinal port and flushed with 2-3 ml of sterile saline. The dead space volume of the ports and tubing vary slightly between individuals, but are generally less than 0.5 ml total. […]
Systemic blood samples allow the calculation of AUC0-inf after oral capsule administration only and portal vein AUC for all the routes of administration.

[1] = 9-NC 0.2 mg/kg COLON port, 0.17 hr
[2] = 9-NC 0.2 mg/kg ileum port, 0.17 hr
[3] = 9-NC 0.2 mg/kg jejunal port, 0.17 hr

CC[C@@]1(O)C(=O)OCc2c1cc1n(c2=O)Cc2cc3c(N)cccc3nc2-1 [9-AC, 9-amino-20(S)-camptothecin]
Mean plasma concentration, Portal Vein [1]: 0.50 ± 0.03 ng/mL | Mean plasma concentration, Systemic [1]: 0.42 ng/mL | Mean plasma concentration, Portal Vein [2]: 0.12 ng/mL | Mean plasma concentration, Systemic [2]: BQL | Mean plasma concentration, Portal Vein [3]: 0.10 ng/mL | Mean plasma concentration, Systemic [3]: BQL | Mean AUC0-inf of 9-AC, Portal Vein AUC (9-NC Intracolon): 20.81 ± 9.57 | Mean AUC0-inf of 9-AC, Systemic AUC (9-NC Intracolon): 36.91 ± 22.62 | Mean AUC0-inf of 9-AC, Systemic AUC (9-NC Intraileum): 21.23 ± 14.94 | Mean AUC0-inf of 9-AC, Portal Vein AUC (9-NC Intrajejunal): 50.26 ± 6.65 | Mean AUC0-inf of 9-AC, Systemic AUC (9-NC Intrajejunal): 24.41 ± 7.77 | Mean AUC0-inf of 9-AC, Portal Vein AUC (9-NC Intravenous (0.1 mg/kg)): 10.76 ± 3.02 | Mean AUC0-inf of 9-AC, Systemic AUC (9-NC Intravenous (0.1 mg/kg)): 12.14 ± 5.68 | Mean AUC0-inf of 9-AC, Portal Vein AUC (9-NC Intravenous (0.2 mg/kg)): 25.02 ± 9.87 | Mean AUC0-inf of 9-AC, Systemic AUC (9-NC Intravenous (0.2 mg/kg)): 21.04 ± 2.36 | Mean AUC0-inf of 9-AC, Portal Vein AUC (9-NC Oral - capsule): 66.15 ± 34.53 | Mean AUC0-inf of 9-AC, Systemic AUC (9-NC Oral - capsule): 44.74 ± 24.72 | Mean AUC0-inf of 9-AC, Portal Vein AUC (9-NC Oral - suspension): 34.43 ± 9.52 | Mean AUC0-inf of 9-AC, Systemic AUC (9-NC Oral - suspension): 20.31 ± 6.97 | Mean AUC0-inf of 9-AC, Systemic AUC (9-NC Portal vein): 4.73 ± 0.73 | Mean plasma concentration, Portal Vein (COLON port, 0.5 hr): 0.77 ± 0.42 ng/mL | Mean plasma concentration, Systemic (COLON port, 0.5 hr): 0.30 ± 0.29 ng/mL | Mean plasma concentration, Portal Vein (COLON port, 1 hr): 1.20 ± 0.60 ng/mL | Mean plasma concentration, Systemic (COLON port, 1 hr): 0.45 ± 0.20 ng/mL | Mean plasma concentration, Portal Vein (COLON port, 1.5 hr): 1.19 ± 0.97 ng/mL | Mean plasma concentration, Systemic (COLON port, 1.5 hr): 0.76 ± 0.12 ng/mL | Mean plasma concentration, Portal Vein (COLON port, 2 hr): 1.50 ± 0.66 ng/mL | Mean plasma concentration, Systemic (COLON port, 2 hr): 0.68 ± 0.11 ng/mL | Mean plasma concentration, Portal Vein (COLON port, 3 hr): 0.88 ± 0.19 ng/mL | Mean plasma concentration, Systemic (COLON port, 3 hr): 0.83 ± 0.36 ng/mL | Mean plasma concentration, Portal Vein (COLON port, 4 hr): 2.06 ± 1.69 ng/mL | Mean plasma concentration, Systemic (COLON port, 4 hr): 0.90 ± 0.45 ng/mL | Mean plasma concentration, Portal Vein (COLON port, 6 hr): 1.54 ± 1.06 ng/mL | Mean plasma concentration, Systemic (COLON port, 6 hr): 0.74 ± 0.06 ng/mL | Mean plasma concentration, Portal Vein (COLON port, 8 hr): 0.70 ng/mL | Mean plasma concentration, Systemic (COLON port, 8 hr): 1.14 ± 0.38 ng/mL | Mean plasma concentration, Systemic (COLON port, 10 hr): 0.77 ng/mL | Mean plasma concentration, Portal Vein (COLON port, 12 hr): 0.76 ng/mL | Mean plasma concentration, Systemic (COLON port, 12 hr): 1.11 ± 0.78 ng/mL | Mean plasma concentration, Portal Vein (COLON port, 24 hr): 0.77 ng/mL | Mean plasma concentration, Systemic (COLON port, 24 hr): 0.83 ± 0.00 ng/mL | half-life of metabolite (after IV 0.1 mg/kg 9-NC): 3.51 ± 1.87 h | half-life of metabolite (after IV 0.2 mg/kg 9-NC): 6.94 ± 2.87 h | time at which the metabolite reached the maximum concentration (after IV dosing of 9-NC): around 1 hr | Mean plasma concentration, Portal Vein (ileum port, 0.5 hr): 0.26 ng/mL | Mean plasma concentration, Systemic (ileum port, 0.5 hr): 0.11 ng/mL | Mean plasma concentration, Portal Vein (ileum port, 1 hr): 0.28 ± 0.06 ng/mL | Mean plasma concentration, Systemic (ileum port, 1 hr): 0.20 ng/mL | Mean plasma concentration, Portal Vein (ileum port, 1.5 hr): 0.75 ± 0.52 ng/mL | Mean plasma concentration, Systemic (ileum port, 1.5 hr): 0.23 ± 0.10 ng/mL | Mean plasma concentration, Portal Vein (ileum port, 2 hr): 0.99 ± 0.60 ng/mL | Mean plasma concentration, Systemic (ileum port, 2 hr): 0.52 ± 0.42 ng/mL | Mean plasma concentration, Portal Vein (ileum port, 3 hr): 1.80 ± 1.97 ng/mL | Mean plasma concentration, Systemic (ileum port, 3 hr): 1.40 ng/mL | Mean plasma concentration, Portal Vein (ileum port, 4 hr): 3.06 ± 3.74 ng/mL | Mean plasma concentration, Systemic (ileum port, 4 hr): 0.86 ± 0.67 ng/mL
